These results are taken from US5801176A, “Substituted benzothienylpiperazines and their use” (Hoechst Marion Roussel, Inc., priority 1997, dated 1998).

As usually defined, the ED50 is the midpoint of the dose-response relation.

Molecules are shown by their SMILES. Where a name gives a salt, the structure may show the parent alone.

In the first test the test system is apomorphine climbing. The test is described as follows: climbing mice assay (apomorphine-induced climbing, antipsychotic activity). In kind it is in vivo. The settings on record: Mus musculus, 0.5 h; 20 mg/kg, ip @ 30 (min before apomorphine 1.5 mg/kg sc); read-out: CLIMBING MOUSE % (percent response, climbing score vs. control set to 100%). The protocol: The compounds of the present invention are useful for treating psychoses by virtue of their ability to elicit an antipsychotic response in mammals. Antipsychotic activity is determined in the climbing mice assay by a method similar to those described by P. Protais, et al., Psychopharmacol.,50:1 (1976) and B. Costall, Eur. J. Pharmacol., 50:39 (1978).
Subject […] male mice (23-27 grams) are group-housed under standard laboratory conditions. The mice are individually placed in wire mesh stick cages (4"×10") and are allowed one hour for adaption and exploration of the new environment. Then apomorphine is injected subcutaneously at 1.5 mg/kg, a dose causing climbing in all subjects for 30 minutes. Compounds to be tested for antipsychotic activity are injected intraperitioneally or given by oral doses at various time intervals., e.g. 30 minutes, 60 minutes, etc., prior to the apomorphine challenge at a screening dose of 10-60 mg/kg.
For evaluation of climbing, 3 readings are taken at 10, 20 and 30 minutes after apomorphine administration according to the following scale:
4 paws on bottom (no climbing)
2 paws on the wall (rearing)
4 paws on the wall (full climb)
Mice consistently climbing before the injection of apomorphine are discarded.
With full-developed apomorphine climbing, the animals are hanging on to the cage walls, rather motionless, over long periods of time. By contrast, climbs due to mere motor stimulation usually only last a few seconds.
The climbing scores are individually totaled (maximal score: 6 per mouse over 3 readings) and the total score of the control group (vehicle intraperitoneally-apomorphine subcutaneously) is set to 100%. The percent response at a dose of 20 mg/kg. or the ED50 values with 95% confidence limits, calculated by a linear regression analysis, of some of the compounds of the present invention as well as a standard antipsychotic agent are presented in Table 1.
Turning to `Fc1ccc2c(N3CCN(CCCCN4Cc5ccccc5C4)CC3)csc2c1`, the change in vivo at 20 mg/kg is -33%.
On to `O=C1c2ccccc2C(=O)N1CCN1CCN(c2csc3cc(F)ccc23)CC1` [N-[2-[4-(6-Fluorobenzo[b]thien-3-yl)-1-piperazinyl]-ethyl]-phthalimide], for which the change in vivo at 20 mg/kg was -25%.
Still for that read-out and setting: then `O=C(NCCCCN1CCN(c2csc3cc(F)ccc23)CC1)c1cccs1` [N-[4-[4-(6-Fluorobenzo[b]thien-3-yl)-1-piperazinyl]butyl]-2-thiophenecarboxamide (Z)-2-butenedioate (1:1)], with -100%; and `CC(=O)N(CCCCN1CCN(c2csc3cc(F)ccc23)CC1)C(=O)C(C)C` [N-Acetyl-N-[4-[4-(6-fluorobenzo[b]thien-3-yl)-1-piperazinyl]butyl]-2-methyl-propanamide], with -75%; and `NCCCCN1CCN(c2csc3cc(F)ccc23)CC1` [4-(6-Fluorobenzo[b]thien-3-yl)-1-piperazinebutanamine (Z)-2-butenedioate (1:2)], with -34%.
In the case of `O=C(NCCCCN1CCN(c2csc3cc(F)ccc23)CC1)C12CC3CC(CC(C3)C1)C2` [N-[4-[4-(6-Fluorobenzo[b]thien-3-yl)-1-piperazinyl]butyl]-adamantane-1-carboxamide maleate], the change in vivo at 20 mg/kg is -79%.
Turning to `O=C1c2ccccc2C(=O)N1CCCCN1CCN(c2csc3cc(F)ccc23)CC1` [2-[4-[4-(6-Fluorobenzo[b]thien-3-yl)-1-piperazinyl]butyl]-1H-isoindole-1,3(2H)-dione], the change in vivo at 20 mg/kg was -100%.
Same read-out and setting: then `O=C1c2ccccc2C(O)N1CCN1CCN(c2csc3cc(F)ccc23)CC1` (stereo not shown) [2-[2-[4-(6-Fluorobenzo[b]thien-3-yl)-1-piperazinyl]-ethyl-2,3-dihydro-3-hydroxy-1H-isoindol-1-one], with -43%.

Staying with this test, now noted: Mus musculus, 0.5 h; ip @ 30 (min before apomorphine 1.5 mg/kg sc); parentheses = 95% confidence limits.
For the molecule `CC(=O)NCCCCN1CCN(c2csc3cc(F)ccc23)CC1` [N-[4-[4-(6-Fluorobenzo[b]thien-3-yl)-1-piperazinyl]butyl-acetamide], the median effective dose (ED50) is 1.35 mg/kg.
Turning to `CC(C)C(=O)NCCCCN1CCN(c2csc3cc(F)ccc23)CC1` [N-[4-[4-(6-fluorobenzo[b]thien-3-yl)-1-piperazinyl]butyl]-2-methyl-propanamide], the 50% effective dose (ED50) was 1.3 mg/kg.
